Series [1] deals with T1, recombinant purified mouse perforin (Mus musculus, UniProt P10820).
T1 sequence (P10820 21-554): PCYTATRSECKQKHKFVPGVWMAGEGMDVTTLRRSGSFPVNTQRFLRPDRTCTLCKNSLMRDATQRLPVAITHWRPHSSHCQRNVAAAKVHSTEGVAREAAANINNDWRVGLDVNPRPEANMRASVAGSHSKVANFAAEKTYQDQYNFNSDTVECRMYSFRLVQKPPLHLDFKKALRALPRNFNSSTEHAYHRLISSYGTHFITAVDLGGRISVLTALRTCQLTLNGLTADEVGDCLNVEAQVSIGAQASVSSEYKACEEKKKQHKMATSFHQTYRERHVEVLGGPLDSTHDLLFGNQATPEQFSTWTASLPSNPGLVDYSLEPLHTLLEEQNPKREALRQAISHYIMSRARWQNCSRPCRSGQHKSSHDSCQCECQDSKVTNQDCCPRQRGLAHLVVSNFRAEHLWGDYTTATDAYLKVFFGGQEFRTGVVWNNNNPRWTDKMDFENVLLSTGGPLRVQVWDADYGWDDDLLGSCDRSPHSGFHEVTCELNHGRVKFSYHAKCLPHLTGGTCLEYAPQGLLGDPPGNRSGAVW
Briefly: Inhibitor binding to immobilized perforin by SPR (Biacore T200). As to conditions: for Kd: single site specific binding model, read-out: calculated KD; for binding to immobilized perforin by SPR: analyte ≤2.5 μM, 5% DMSO running buffer. From the text:
While several series of potent inhibitors have now been identified,[23]−[26] little is known about the mechanism by which the cytolytic activity of perforin action is blocked. In order to find out more about the nature and degree of inhibitor binding, recombinant purified mouse perforin was immobilized on a surface plasmon resonance (SPR) S-series CM5 sensor chip using standard amide coupling methodology.
Binding experiments with surface immobilized wild-type perforin monomers on a S-series CM5 sensor chip (GE Healthcare Life Sciences) were carried out using a Biacore T200 SPR machine (GE Healthcare Life Sciences). Perforin monomer solution (25 μg/mL in 10 mM sodium acetate, pH 5.5) was injected over the sensor chip surface under standard amide coupling conditions to obtain covalent binding of the protein (density = 4257 RU). The initial and running buffers were made from a 10× stock solution of HEPES buffered saline (HBS). 10× HBS (50 mL) was diluted to 500 mL with water and filtered through a 0.22 μm filter (initial buffer). This initial buffer (380 mL) was added to DMSO (20 mL) to prepare the 5% DMSO running buffer. Stock solutions (2.5 mM) of compound were prepared in 100% DMSO. These solutions were diluted in HEPES initial buffer to 5% DMSO (125 μM) and then subsequently diluted to the required concentrations using HEPES running buffer containing 5% DMSO to maintain a constant DMSO concentration. A solvent correction was run before and after the injections to account for differences in DMSO concentrations between buffer and analyte solutions.

In series [2] the target is T2, perforin produced by an intact NK cell line (KHYG-1) (Homo sapiens, UniProt P14222).
T2 construct: the perforin is delivered by a functional NK cell; endogenous in cells; host or cells: KHYG-1 NK cells (K562 target cells)
T2 sequence (P14222 22-555): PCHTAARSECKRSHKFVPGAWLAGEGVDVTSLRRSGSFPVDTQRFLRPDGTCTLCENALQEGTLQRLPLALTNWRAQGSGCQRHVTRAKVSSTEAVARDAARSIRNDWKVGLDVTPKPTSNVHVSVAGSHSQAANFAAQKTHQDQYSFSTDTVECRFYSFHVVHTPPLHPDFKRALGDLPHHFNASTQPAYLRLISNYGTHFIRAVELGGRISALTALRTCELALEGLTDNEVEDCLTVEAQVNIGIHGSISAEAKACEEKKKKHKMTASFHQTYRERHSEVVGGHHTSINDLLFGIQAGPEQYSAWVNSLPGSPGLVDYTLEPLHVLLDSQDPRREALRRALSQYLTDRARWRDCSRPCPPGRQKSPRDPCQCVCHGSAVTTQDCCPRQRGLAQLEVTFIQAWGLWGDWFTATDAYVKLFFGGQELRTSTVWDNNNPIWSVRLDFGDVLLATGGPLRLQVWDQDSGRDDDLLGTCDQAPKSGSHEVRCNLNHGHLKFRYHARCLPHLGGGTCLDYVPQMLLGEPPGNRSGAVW
The series can be described thus: KHYG-1 cytotoxicity assay: perforin-induced lysis of K562 target cells co-incubated with KHYG-1 NK cells. The series is classed as cell-based. As to conditions: for inhibition at 5 µM: KHYG-1. The procedure:
KHYG-1 cells were washed and resuspended in RPMI + 0.1% BSA at 4 × 10^5 cells/mL, and an amount of 50 μL of KHYG-1 cells was dispensed to each well of a 96-well V-bottom plate. RPMI (50 μL) + 0.1% BSA or 10% (final concentration) of serum was added to each well. Then test compounds were added to KHYG-1 cells at various concentrations up to 20 μM and incubated at room temperature for 20 min. 1 × 10^6 K562 target cells were labeled with 75 μCi ^51Cr in 200 μL of RPMI for 90 min at 37 °C. Cells were washed as described above and resuspended in 5 mL of RPMI + 0.1% BSA. […] The percentage of specific cytotoxicity was calculated using the following formula: [drawing 4] and expressed as the mean of triplicate assays ± standard error of the mean.

Series [3] is described as follows: Maximum tolerated dose (MTD) in C57BL/6 mice. As to conditions: C57BL/6, mouse, in vivo, ip. The procedure:
The MTD was determined by single dose or b.i.d. × 3 intraperitoneal administration through a classical dose escalation design in C57BL/6 mice and defined as a dose level that was tolerated by mice (n = 2–3 mice/group) with a body weight loss of <10% and no death or detectable sickness. […] All animal experiments were approved by the Animal Ethics Committee of the University of Auckland.

For series [4], the target named is T3, purified recombinant perforin (Mus musculus, UniProt P10820).
T3 sequence (P10820 21-554): T1 sequence (P10820 21-554)
The series can be described thus: cell-based. The series is classed as cell-based. The following applies: lysis of Jurkat cells by purified recombinant perforin, 51Cr release, 0.1% BSA; average of at least three determinations; read-out: inhibition of Jurkat cell lysis, IC50.
Experimental: The ability of the compounds to inhibit the lysis of nucleated (Jurkat T lymphoma) cells in the presence of 0.1% BSA was measured by release of ^51Cr label. Jurkat target cells were labeled by incubation in medium with 100 μCi ^51Cr for 1 h. The cells were then washed three times to remove unincorporated isotope and resuspended at 1 × 10^5 cells per milliliter in RPMI buffer supplemented with 0.1% BSA. […] Each data point was performed in triplicate, and an IC50 was calculated from the range of concentrations described above.

The mark [5] stands for this setting: SI Figure 2: 0, 0.25, 1.25 and 2.5 µM.
Where [6] appears, read: SI Figure 3: further dilution series 0–2.5 µM.
Where [7] appears, read: intraperitoneal, twice daily over 3 days, read-out: MTD, multiple dosing.
[8] abbreviates: single intraperitoneal dose, mice, read-out: MTD, single dose.

Here are results for two molecules from paper PMC3865801 (Journal of Medicinal Chemistry, 2013).

Molecules are shown by their SMILES. Entries after “also recorded” stand apart in the source; their conditions may differ. Like-named read-outs stand apart in the source and are kept apart here.

As to `CC1c2cc(-c3ccc(/C=C4/NC(=S)NC4=O)s3)ccc2C(=O)N1C` (stereo not drawn) [compound 135, (E,Z)-2,3-Dimethyl-5-(5-((5-oxo-2-thioxoimidazolidin-4-ylidene)methyl)thiophen-2-yl)isoindolin-1-one], the “calculated Rmax” value in series [1] (setting [5]) was 1.23 ± 0.10 RU; in series [1] (setting [6]) it was 8.66 ± 2.81 RU. In addition, the Kd is 1.79 ± 0.55 µM in series [1] (setting [5]) and 2.39 ± 1.23 µM in series [1] (setting [6]). The “binding to immobilized perforin by SPR” value in series [1] is on record as “saturable binding; also recorded: bind reversibly”. In addition, the inhibition at 20 µM in series [2] (20 μM, 10% mouse serum, K562 targets, ± SEM, read-out: KHYG-1 inhibition (% at 20 μM), 10% serum) was determined as 67 ± 6.1%; in series [2] (20 μM, no serum, K562 targets, vs untreated control, ± SEM, read-out: KHYG-1 inhibition (% at 20 μM), no serum) it was 90 ± 4%. In addition, the MTD at 96 h came to 60 mg/kg in series [3] (setting [7]) and 80 mg/kg in series [3] (setting [8]). In addition, the concentration for half-maximal inhibition (IC50) in series [4] came to 3.21 µM.
As to `O=C1NC(=S)N/C1=C/c1ccc(-c2ccc3c(c2)CCNC3=O)s1` [compound 167], in series [1], the “binding to immobilized perforin by SPR” value is reported as “linear concentration response; also recorded: bind reversibly”. Besides, the inhibition at 5 µM in series [2] (10% mouse serum, read-out: KHYG-1 inhibition, 10% serum) stood at 34 ± 6.4%; in series [2] (no serum, read-out: KHYG-1 inhibition, no serum), 51 ± 4.2%. Also, the inhibition at 20 µM was 81 ± 5.3% in series [2] (read-out: KHYG-1 inhibition (% at 20 μM), 10% serum) and 83 ± 4.6% in series [2] (read-out: KHYG-1 inhibition (% at 20 μM), no serum). Further, the values for the maximum tolerated dose (MTD) at 96 h in series [3] (setting [7]) and in series [3] (setting [8]) were 40 mg/kg and 60 mg/kg, respectively. Also, in series [4], the IC50 was determined as 1.14 µM.
